# Laboratory results as given in patent US20080182811A1, “METABOTROPIC GLUTAMATE RECEPTOR ACTIVATOR” (Ajinomoto Co., Inc., priority 2005, published 2008).
# Columns and labels:
# Format in all cases: cell-based
# [1] = biological target: T1, group I metabotropic glutamate receptor subtype 5 (mGluR5) (Homo sapiens, UniProt P41594); test: Electrophysiological measurement of response current in Xenopus oocytes injected with mGluR5 cRNA; conditions: aspartic acid 300 μM, valine 3 mM; for mGluR5 (receptor activation by amino acid): amino acid alone, others 10 mM, oocytes injected with mGluR5 cRNA; for mGluR5 (receptor activation by amino acid) / effect of amino acid (response current value) with nucleic acid and cation vs amino acid alone: cysteine 1 mM; for effect of amino acid (response current value) with nucleic acid and cation vs amino acid alone: coexistence with both inosinic acid (1 mM) and calcium ion (10 mM), FIG. 4; for effect of amino acid (response current value) with nucleic acid and cation vs amino acid alone / effect of amino acid (response current value) with cation vs amino acid alone / effect of amino acid (response current value) with nucleic acid vs amino acid alone: glutamic acid 3 μM; for effect of amino acid (response current value) with cation vs amino acid alone: coexistence with calcium ion (10 mM), FIG. 3; for effect of amino acid (response current value) with cation vs amino acid alone / effect of amino acid (response current value) with nucleic acid vs amino acid alone: cysteine 3 mM; for effect of amino acid (response current value) with nucleic acid vs amino acid alone: coexistence with inosinic acid (1 mM), FIG. 2
# T1 construct: expressed in transfected cells; host or cells: Xenopus oocytes injected with cRNA
# T1 sequence (P41594 21-1180 isoform P41594-2 limits assumed): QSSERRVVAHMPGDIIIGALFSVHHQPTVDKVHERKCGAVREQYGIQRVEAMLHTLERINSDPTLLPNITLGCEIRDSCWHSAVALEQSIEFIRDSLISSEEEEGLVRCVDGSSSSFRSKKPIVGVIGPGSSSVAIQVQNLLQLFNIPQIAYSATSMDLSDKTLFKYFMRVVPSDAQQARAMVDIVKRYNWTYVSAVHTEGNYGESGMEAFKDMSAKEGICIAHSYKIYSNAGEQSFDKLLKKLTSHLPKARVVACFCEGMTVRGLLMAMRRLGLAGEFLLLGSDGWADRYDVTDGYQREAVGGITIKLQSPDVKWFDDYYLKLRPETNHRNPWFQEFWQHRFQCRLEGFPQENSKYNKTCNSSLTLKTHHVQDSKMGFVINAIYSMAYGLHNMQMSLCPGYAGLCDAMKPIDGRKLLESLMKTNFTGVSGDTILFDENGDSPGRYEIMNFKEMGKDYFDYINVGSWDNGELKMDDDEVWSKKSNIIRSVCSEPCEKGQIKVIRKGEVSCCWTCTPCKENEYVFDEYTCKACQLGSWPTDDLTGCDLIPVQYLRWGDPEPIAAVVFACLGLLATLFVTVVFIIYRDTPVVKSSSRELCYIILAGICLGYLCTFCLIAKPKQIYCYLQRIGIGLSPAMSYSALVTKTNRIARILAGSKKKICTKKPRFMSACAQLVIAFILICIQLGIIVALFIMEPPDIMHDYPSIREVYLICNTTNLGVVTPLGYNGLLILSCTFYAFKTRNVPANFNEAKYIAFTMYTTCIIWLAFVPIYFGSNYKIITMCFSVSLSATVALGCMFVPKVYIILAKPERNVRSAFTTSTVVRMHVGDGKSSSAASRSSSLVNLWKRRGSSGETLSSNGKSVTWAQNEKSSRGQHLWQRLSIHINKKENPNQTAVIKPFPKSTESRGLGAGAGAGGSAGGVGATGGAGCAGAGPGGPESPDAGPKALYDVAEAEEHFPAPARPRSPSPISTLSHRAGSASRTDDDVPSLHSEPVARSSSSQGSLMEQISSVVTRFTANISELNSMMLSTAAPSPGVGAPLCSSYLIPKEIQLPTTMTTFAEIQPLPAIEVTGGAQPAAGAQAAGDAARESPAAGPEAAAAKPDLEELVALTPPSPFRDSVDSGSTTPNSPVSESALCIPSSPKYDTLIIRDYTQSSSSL
# Source text: A metabotropic glutamate receptor subtype 5 (mGluR5) was used as a group I metabotropic glutamate receptor. A metabotropic glutamate receptor subtype 3 (mGluR3) was used as a representative of group II metabotropic glutamate receptors. A metabotropic glutamate receptor subtype 8 (mGluR8) was used as a representative of group III metabotropic glutamate receptors. The genes of the three metabotropic glutamate receptors, G-protein-gated inward rectifier K channel 1 (GIRK1), and G-protein-gated inward rectifier K channel 4 (GIRK4) were prepared as follows.
# PCR was performed using a cDNA derived from the human brain (manufactured by Clontech) as a material and using Pfu ultra DNA Polymerase (manufactured by Stratagene) under the following conditions. After a 3-minute reaction at 94° C., a cycle of 94° C./30 seconds, 55° C./30 seconds, and 72° C./2 minutes was repeated 35 times, followed by a 7-minute reaction at 72° C. Amplified PCR products were subjected to agarose gel electrophoresis, stained with a DNA staining reagent and detected by UV irradiation. The lengths of the PCR products were confirmed by comparing the lengths with a DNA marker having a known size, which was electrophoresed simultaneously with the PCR products. A plasmid vector pBR322 was cleaved with a restriction enzyme EcoRV (manufactured by TAKARA BIO INC.). The respective gene fragments amplified by PCR were ligated to the cleaved site using Ligation Kit (manufactured by Promega). Escherichia coli DH5a strain was transformed with the reaction solution, and transformants carrying plasmids where the PCR products were cloned were selected. The PCR amplified products were identified by DNA sequence analysis. The recombinant plasmids were used as a template to prepare cRNA of each of the receptor genes using a cRNA preparation kit (Ambion, Inc.).
# Special grade reagents of twenty-three L-amino acids including alanine, arginine, asparagine, aspartic acid, cysteine, glutamine, glutamic acid, glycine, histidine, isoleucine, leucine, lysine, methionine, phenylalanine, proline, serine, threonine, tryptophan, tyrosine, valine, ornithine, taurine, and hydroxyproline were used. Special grade reagents of inosine and calcium chloride were used. Glutamine and cysteine were prepared every time before use, and the other reagents were prepared and stored at −20° C. A solution for dissolving amino acids, nucleic acids, and cations, a solution for preparing Xenopus oocytes, and a solution for culturing Xenopus oocytes have the following composition. NaCl 96 mM/KCl 2 mM/MgCl2 1 mM/CaCl2 1.8 mM/Hepes 5 mM/pH 7.2.
# Ca ion concentration-dependent Cl ion current measurement method using a Xenopus oocyte expression system was used as a method of measuring the signaling via a metabotropic glutamate receptor. The abdomen of a Xenopus were incised, and the egg mass was removed and treated with a 1% collagenase solution at 20° C. for 2 hours, to thereby obtain individual oocytes. To one oocyte was introduced 50 nl of 1 μg/μl receptor cRNA or 50 nl of distilled water using a microcapillary, followed by culture at 18° C. for 2 or 3 days. This culture was performed using a solution obtained by adding 2 mM pyruvic acid, 10 U/ml penicillin, and 10 μg/ml streptomycin to the solution shown in Example 2. After completion of culture, a ligand solution was added to oocytes injected with the cRNA and oocytes injected with distilled water, respectively. Electrophysiological measurement was performed using an amplifier Geneclamp 500 (manufactured by Axon Instruments, Inc.) and recording software AxoScope 9.0 (manufactured by Axon Instruments, Inc.). The oocytes were subjected to membrane potential fixation at −70 mV by a two-electrode membrane potential fixation method, and intracellular currents via Ca ion concentration-dependent Cl ion were measured. The maximal value of the intracellular currents was defined as a response current value.
# [2] = biological target: T2, group II metabotropic glutamate receptor subtype 3 (mGluR3) (Homo sapiens, UniProt Q14832); test: Electrophysiological measurement of response current in Xenopus oocytes injected with mGluR3, GIRK1 and GIRK4 cRNAs; conditions: for mgluR3 (receptor activation by amino acid): amino acid alone, 1 mM, oocytes injected with mGluR3, GIRK1, GIRK4 cRNAs; for effect of amino acid (response current value) with cation vs amino acid alone: coexistence with calcium ion (10 mM), FIG. 7; for effect of amino acid (response current value) with cation vs amino acid alone / effect of amino acid (response current value) with nucleic acid and cation vs amino acid alone / effect of amino acid (response current value) with nucleic acid vs amino acid alone: glutamic acid 3 μM, aspartic acid 300 μM, leucine 1 mM; for effect of amino acid (response current value) with cation vs amino acid alone / effect of amino acid (response current value) with nucleic acid and cation vs amino acid alone: cysteine 1 mM; for effect of amino acid (response current value) with nucleic acid and cation vs amino acid alone: coexistence with inosinic acid (1 mM) and calcium ion (10 mM), FIG. 8; for effect of amino acid (response current value) with nucleic acid vs amino acid alone: coexistence with inosinic acid (1 mM), valine 1 mM, FIG. 6
# T2 construct: expressed in transfected cells; host or cells: Xenopus oocytes injected with cRNAs of mGluR3, GIRK1 and GIRK4
# T2 sequence (Q14832 23-879): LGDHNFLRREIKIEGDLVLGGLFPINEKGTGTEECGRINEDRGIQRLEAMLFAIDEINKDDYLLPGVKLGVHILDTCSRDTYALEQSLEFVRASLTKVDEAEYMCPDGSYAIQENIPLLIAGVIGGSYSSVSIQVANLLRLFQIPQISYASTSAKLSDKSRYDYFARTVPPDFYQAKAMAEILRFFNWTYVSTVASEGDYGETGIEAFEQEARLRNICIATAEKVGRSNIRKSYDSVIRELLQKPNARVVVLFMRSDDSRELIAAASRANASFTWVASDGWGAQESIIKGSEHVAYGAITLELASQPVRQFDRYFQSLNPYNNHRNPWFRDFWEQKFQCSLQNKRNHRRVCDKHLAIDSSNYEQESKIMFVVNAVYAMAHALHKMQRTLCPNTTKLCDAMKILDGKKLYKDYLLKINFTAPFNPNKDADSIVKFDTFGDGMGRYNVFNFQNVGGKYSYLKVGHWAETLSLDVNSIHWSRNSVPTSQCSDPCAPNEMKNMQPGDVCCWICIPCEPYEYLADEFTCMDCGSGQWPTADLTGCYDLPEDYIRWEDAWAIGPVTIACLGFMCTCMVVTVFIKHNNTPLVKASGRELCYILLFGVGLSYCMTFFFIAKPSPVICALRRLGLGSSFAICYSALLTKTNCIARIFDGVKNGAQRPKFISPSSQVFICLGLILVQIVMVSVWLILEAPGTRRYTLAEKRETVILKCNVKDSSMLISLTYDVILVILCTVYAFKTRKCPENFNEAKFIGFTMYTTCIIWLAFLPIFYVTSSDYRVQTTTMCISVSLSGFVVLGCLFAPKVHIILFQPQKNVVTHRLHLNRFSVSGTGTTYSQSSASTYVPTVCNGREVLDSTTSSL
# [3] = biological target: T3, group III metabotropic glutamate receptor subtype 8 (mGluR8) (Homo sapiens, UniProt O00222); test: Electrophysiological measurement of response current in Xenopus oocytes injected with mGluR8, GIRK1 and GIRK4 cRNAs; conditions: cysteine 1 mM; for mgluR8 (receptor activation by amino acid): amino acid alone, aspartic acid 300 μM, valine 3 mM, others 10 mM, oocytes injected with mGluR8, GIRK1, GIRK4 cRNAs; for effect of amino acid (response current value) with nucleic acid and cation vs amino acid alone: coexistence with both inosinic acid (1 mM) and calcium ion (10 mM), FIG. 12; for effect of amino acid (response current value) with nucleic acid and cation vs amino acid alone / effect of amino acid (response current value) with cation vs amino acid alone / effect of amino acid (response current value) with nucleic acid vs amino acid alone: glutamic acid 3 μM; for effect of amino acid (response current value) with cation vs amino acid alone: coexistence with calcium ion (10 mM), FIG. 11; for effect of amino acid (response current value) with nucleic acid vs amino acid alone: coexistence with inosinic acid (1 mM), FIG. 10
# T3 construct: expressed in transfected cells; host or cells: Xenopus oocytes injected with cRNAs of mGluR8, GIRK1 and GIRK4
# T3 sequence (O00222 34-908): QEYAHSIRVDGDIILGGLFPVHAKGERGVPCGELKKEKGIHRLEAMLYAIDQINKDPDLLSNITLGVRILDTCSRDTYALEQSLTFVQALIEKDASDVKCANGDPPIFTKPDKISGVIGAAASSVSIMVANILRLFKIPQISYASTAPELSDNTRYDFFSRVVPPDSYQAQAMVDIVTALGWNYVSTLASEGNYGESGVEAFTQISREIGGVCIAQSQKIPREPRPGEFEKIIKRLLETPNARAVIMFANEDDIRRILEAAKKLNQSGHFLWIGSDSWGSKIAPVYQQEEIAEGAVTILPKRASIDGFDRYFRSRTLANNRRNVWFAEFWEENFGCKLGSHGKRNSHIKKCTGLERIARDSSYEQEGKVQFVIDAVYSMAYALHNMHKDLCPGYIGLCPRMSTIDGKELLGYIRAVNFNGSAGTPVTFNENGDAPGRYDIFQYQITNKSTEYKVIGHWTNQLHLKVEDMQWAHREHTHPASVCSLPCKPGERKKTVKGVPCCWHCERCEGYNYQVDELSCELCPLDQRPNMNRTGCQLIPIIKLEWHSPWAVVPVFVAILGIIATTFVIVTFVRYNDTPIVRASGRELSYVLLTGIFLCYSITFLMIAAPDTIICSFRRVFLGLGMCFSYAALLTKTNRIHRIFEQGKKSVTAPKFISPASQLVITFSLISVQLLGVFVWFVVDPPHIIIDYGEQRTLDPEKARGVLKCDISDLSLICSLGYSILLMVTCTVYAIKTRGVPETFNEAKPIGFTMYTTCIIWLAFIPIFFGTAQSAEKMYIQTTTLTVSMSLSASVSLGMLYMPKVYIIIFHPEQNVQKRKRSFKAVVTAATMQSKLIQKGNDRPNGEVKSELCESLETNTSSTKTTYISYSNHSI
Compound,mGluR5 (receptor activation by amino acid) [1],mGluR5 (receptor activation by amino acid) ([1]; listed as cysteine),effect of amino acid (response current value) with nucleic acid and cation vs amino acid alone [1],effect of amino acid (response current value) with cation vs amino acid alone [1],effect of amino acid (response current value) with nucleic acid vs amino acid alone [1],mgluR3 (receptor activation by amino acid) [2],mgluR3 (receptor activation by amino acid) ([2]; listed as cysteine),effect of amino acid (response current value) with cation vs amino acid alone [2],effect of amino acid (response current value) with nucleic acid and cation vs amino acid alone [2],mgluR8 (receptor activation by amino acid) [3],mgluR8 (receptor activation by amino acid) ([3]; listed as cysteine),effect of amino acid (response current value) with nucleic acid and cation vs amino acid alone [3],effect of amino acid (response current value) with cation vs amino acid alone [3],effect of amino acid (response current value) with nucleic acid vs amino acid alone [3],mGluR5 (receptor activation by amino acid) ([1]; listed as glutamic acid),mgluR3 (receptor activation by amino acid) ([2]; listed as glutamic acid),effect of amino acid (response current value) with nucleic acid vs amino acid alone [2],mgluR8 (receptor activation by amino acid) ([3]; listed as glutamic acid),mGluR5 (receptor activation by amino acid) ([1]; listed as aspartic acid),mgluR3 (receptor activation by amino acid) ([2]; listed as aspartic acid)
"N[C@@H](CS)C(=O)O [Cysteine, cysteine]",Activated,effects of enhancing,enhanced,enhanced,enhanced,Activated,effects of enhancing the activation,enhanced,enhanced,Activated,effects of activating,enhanced,enhanced,enhanced,–,–,–,–,–,–
"N[C@@H](CCC(=O)O)C(=O)O [Glutamic acid, glutamic acid, reference compound]",Activated,–,enhanced,enhanced,enhanced,Activated,–,enhanced,enhanced,Activated,–,enhanced,enhanced,enhanced,effects of enhancing,effects of enhancing the activation,enhanced,effects of activating,–,–
"N[C@@H](CC(=O)O)C(=O)O [Aspartic acid, aspartic acid]",Activated,–,enhanced,enhanced,enhanced,Activated,–,enhanced,enhanced,–,–,–,–,–,–,–,enhanced,–,effects of enhancing,effects of enhancing the activation
